Measured values reported in ChEMBL document CHEMBL1137734, “2D- and 3D-QSAR of tocainide and mexiletine analogues acting as Na(v)1.4 channel blockers” (Eur J Med Chem, 2009).

Molecular target: Sodium channel protein type 4 subunit alpha (Homo sapiens, UniProt P35499)
Assay: Inhibition of Nav1.4 ion channel assessed as reduction in cumulative sodium current

Sodium channel protein type 4 subunit alpha, sequence (P35499 whole entry): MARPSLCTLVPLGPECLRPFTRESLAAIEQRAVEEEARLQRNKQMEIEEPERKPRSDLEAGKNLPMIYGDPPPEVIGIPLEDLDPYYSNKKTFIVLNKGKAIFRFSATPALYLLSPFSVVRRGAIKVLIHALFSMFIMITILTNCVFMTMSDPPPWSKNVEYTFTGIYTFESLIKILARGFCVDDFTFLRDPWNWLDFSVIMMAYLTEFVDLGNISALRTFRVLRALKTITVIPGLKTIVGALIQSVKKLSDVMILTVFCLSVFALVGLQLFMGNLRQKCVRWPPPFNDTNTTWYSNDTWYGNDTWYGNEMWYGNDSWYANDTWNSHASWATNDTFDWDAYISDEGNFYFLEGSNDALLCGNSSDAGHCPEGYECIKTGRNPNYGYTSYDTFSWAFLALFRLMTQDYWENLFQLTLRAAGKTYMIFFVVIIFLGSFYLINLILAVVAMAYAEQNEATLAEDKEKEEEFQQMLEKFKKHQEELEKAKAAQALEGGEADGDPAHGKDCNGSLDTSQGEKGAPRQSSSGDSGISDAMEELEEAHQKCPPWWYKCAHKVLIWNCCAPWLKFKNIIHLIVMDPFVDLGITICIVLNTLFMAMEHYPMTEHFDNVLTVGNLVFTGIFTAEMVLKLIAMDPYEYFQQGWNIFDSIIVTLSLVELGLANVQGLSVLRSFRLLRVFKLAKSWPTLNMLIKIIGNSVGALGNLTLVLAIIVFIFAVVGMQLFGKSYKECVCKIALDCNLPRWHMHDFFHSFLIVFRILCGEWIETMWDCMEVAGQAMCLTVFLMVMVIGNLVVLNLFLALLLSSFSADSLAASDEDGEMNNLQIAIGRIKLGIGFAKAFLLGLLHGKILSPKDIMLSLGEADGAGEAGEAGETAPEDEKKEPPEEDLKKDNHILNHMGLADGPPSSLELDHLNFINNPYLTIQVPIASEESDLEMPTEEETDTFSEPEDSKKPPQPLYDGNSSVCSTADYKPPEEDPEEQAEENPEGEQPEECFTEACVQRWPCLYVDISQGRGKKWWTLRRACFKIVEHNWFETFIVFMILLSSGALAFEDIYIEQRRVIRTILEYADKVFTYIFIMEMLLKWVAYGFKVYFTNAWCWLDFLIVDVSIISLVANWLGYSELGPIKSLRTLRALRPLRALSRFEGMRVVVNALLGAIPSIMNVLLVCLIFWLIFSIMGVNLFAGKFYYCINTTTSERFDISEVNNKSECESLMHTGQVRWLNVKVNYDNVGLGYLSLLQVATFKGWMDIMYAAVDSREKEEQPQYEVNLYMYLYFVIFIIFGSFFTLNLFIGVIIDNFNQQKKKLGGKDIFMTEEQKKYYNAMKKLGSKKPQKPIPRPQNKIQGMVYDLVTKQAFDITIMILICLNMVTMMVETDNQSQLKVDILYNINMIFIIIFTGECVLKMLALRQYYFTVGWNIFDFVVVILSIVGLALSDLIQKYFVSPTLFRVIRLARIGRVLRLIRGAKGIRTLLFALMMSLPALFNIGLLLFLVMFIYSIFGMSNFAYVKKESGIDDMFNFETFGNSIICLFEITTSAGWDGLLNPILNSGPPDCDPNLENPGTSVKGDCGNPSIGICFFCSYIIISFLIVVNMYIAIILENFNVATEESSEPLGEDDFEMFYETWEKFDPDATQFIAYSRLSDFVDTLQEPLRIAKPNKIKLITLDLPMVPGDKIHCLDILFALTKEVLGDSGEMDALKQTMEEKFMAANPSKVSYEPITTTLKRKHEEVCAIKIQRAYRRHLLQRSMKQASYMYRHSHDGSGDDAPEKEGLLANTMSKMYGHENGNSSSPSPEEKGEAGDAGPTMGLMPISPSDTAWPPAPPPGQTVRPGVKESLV

Row | Structure (SMILES) | EC50
1 | Cc1cc(Cl)cc(C)c1OC[C@@H](N)c1ccccc1 | 7.94 µM
2 | N[C@@H](COc1ccccc1)c1ccccc1 | 3.98 µM
3 | N[C@H](COc1ccc(Cl)cc1)c1ccccc1 | 3.02 µM
4 | Cc1cccc(C)c1OC[C@H](N)c1ccccc1 | 3.02 µM
5 | Cc1cccc(C)c1OC[C@@H](N)c1ccccc1 | 3.02 µM
6 | Cc1cc(Cl)cc(C)c1OC[C@H](N)c1ccccc1 | 19.5 µM
7 | Cc1cc(Cl)ccc1OC[C@H](N)c1ccccc1 | 15.1 µM
8 | N[C@H](COc1ccccc1)c1ccccc1 | 15.8 µM
9 | Cc1cccc(C)c1SC[C@@H](C)CN | 1.91 µM
10 | Cc1cccc(C)c1OC[C@H](N)C(C)C | 5.75 µM
11 | Cc1cccc(C)c1SC[C@H](C)CN | 2.69 µM
12 | Cc1cccc(C)c1SC[C@@H](N)c1ccccc1 | 4.68 µM
13 | Cc1cccc(C)c1OC[C@H](C)CN | 23.4 µM
14 | Cc1cccc(C)c1NC(=O)[C@@H](C)NCc1ccccc1 | 11.2 µM
15 | Cc1cccc(C)c1NC(=O)[C@H](C)NCc1ccccc1 | 9.12 µM
16 | Cc1cccc(C)c1NC(=O)[C@@H]1CCCN1 | 40.7 µM
17 | Cc1cccc(C)c1NC(=O)[C@H]1CCCN1C | 67.6 µM
18 | Cc1cccc(C)c1NC(=O)[C@@H]1CCCN1C | 28.2 µM
19 | Cc1cccc(C)c1SC[C@H](N)c1ccccc1 | 7.08 µM
20 | Cc1cccc(C)c1N(C)C(=O)[C@H]1CCCN1C | 501 µM

Row | Structure (SMILES) | EC50
21 | Cc1cccc(C)c1N(C)C(=O)[C@H]1CCCN1 | 219 µM
22 | Cc1cccc(C)c1N(C)C(=O)[C@@H]1CCCN1 | 67.6 µM
23 | Cc1cccc(C)c1N(C)C(=O)[C@@H]1CCCN1C | 200 µM
24 | Cc1cccc(C)c1NC(=O)[C@@H]1CCCN1Cc1ccccc1 | 10 µM
25 | Cc1cccc(C)c1NC(=O)[C@@H]1CCN(Cc2ccccc2)C1 | 1.7 µM
26 | Cc1cccc(C)c1OC[C@@H](C)CN | 17.4 µM
27 | Cc1cc(Cl)cc(C)c1OC[C@H](C)CN | 3.72 µM
28 | Cc1cc(Cl)ccc1OC[C@@H](N)Cc1ccccc1 | 22.9 µM
29 | Cc1cccc(C)c1NC(=O)[C@H]1CCN(Cc2ccccc2)C1 | 2.29 µM
30 | Cc1cccc(C)c1OC[C@H](N)Cc1ccccc1 | 2.4 µM
31 | Cc1cccc(C)c1N1CN2CCC[C@@H]2C1=O | 501 µM
32 | Cc1cc(Cl)cc(C)c1OC[C@@H](C)CN | 2.88 µM
33 | Cc1cccc(C)c1NC(=O)[C@H]1CCCN1 | 12 µM
34 | Cc1cccc(C)c1NC(=O)[C@H]1CCCN1Cc1ccccc1 | 31.6 µM
35 | Cc1cccc(C)c1OC[C@@H](N)C(C)C (racemic) | 5.75 µM
36 | Cc1cccc(C)c1OC[C@@H](C)N [(R)-MEXILETINE] | 22.9 µM
37 | Cc1cccc(C)c1NC(=O)[C@@H](C)N [(R)-TOCAINIDE] | 275 µM
38 | Cc1cccc(C)c1OC[C@H](C)N [(S)-MEXILETINE] | 26.9 µM
39 | Cc1cccc(C)c1NC(=O)[C@H](C)N [S-TOCAINIDE] | 224 µM
